One compound from ChEMBL document CHEMBL5576081, “Exploring the structural activity relationship of the Osimertinib: A covalent inhibitor of double mutant EGFRL858R/T790M tyrosine kinase for the treatment of Non-Small Cell Lung Cancer (NSCLC)” (Bioorg Med Chem, 2024) can be followed below.

Broadly, the IC50 is the concentration that gives 50% inhibition.

Test [1] addresses Epidermal growth factor receptor (Homo sapiens, UniProt P00533, L858R/T790M). Put plainly: Inhibition of EGFR L858R/T790M mutant (unknown origin).
The target in test [2] is Epidermal growth factor receptor (Homo sapiens, UniProt P00533). Put plainly: Inhibition of wild-type EGFR (unknown origin) using TK as substrate incubated for 120 mins in presence of ATP by HTRF assay.
A further test relates to NCI-H1975. Nature of the test: Cytotoxicity against human NCI-H1975 cells assessed as reduction in cell viability incubated for 48 hrs by CCK-8 assay. The test is classed as functional, cell-based. Conditions: NCI-H1975, 48 h.
A further test concerns PC-9. Nature of the test: Cytotoxicity against human PC-9 cells assessed as reduction in cell viability incubated for 48 hrs by CCK-8 assay. It counts as functional, cell-based. The note with it: PC-9, 48 h. Background: Tetrazolium dyes change colour on reduction, which living cells bring about.
A further test relates to NCI-H292. Put plainly: Cytotoxicity against human NCI-H292 cells assessed as reduction in cell viability incubated for 48 hrs by CCK-8 assay. The test is classed as functional, cell-based. Conditions: NCI-H292, 48 h.

Epidermal growth factor receptor (Homo sapiens, UniProt P00533), sequence (P00533 whole entry): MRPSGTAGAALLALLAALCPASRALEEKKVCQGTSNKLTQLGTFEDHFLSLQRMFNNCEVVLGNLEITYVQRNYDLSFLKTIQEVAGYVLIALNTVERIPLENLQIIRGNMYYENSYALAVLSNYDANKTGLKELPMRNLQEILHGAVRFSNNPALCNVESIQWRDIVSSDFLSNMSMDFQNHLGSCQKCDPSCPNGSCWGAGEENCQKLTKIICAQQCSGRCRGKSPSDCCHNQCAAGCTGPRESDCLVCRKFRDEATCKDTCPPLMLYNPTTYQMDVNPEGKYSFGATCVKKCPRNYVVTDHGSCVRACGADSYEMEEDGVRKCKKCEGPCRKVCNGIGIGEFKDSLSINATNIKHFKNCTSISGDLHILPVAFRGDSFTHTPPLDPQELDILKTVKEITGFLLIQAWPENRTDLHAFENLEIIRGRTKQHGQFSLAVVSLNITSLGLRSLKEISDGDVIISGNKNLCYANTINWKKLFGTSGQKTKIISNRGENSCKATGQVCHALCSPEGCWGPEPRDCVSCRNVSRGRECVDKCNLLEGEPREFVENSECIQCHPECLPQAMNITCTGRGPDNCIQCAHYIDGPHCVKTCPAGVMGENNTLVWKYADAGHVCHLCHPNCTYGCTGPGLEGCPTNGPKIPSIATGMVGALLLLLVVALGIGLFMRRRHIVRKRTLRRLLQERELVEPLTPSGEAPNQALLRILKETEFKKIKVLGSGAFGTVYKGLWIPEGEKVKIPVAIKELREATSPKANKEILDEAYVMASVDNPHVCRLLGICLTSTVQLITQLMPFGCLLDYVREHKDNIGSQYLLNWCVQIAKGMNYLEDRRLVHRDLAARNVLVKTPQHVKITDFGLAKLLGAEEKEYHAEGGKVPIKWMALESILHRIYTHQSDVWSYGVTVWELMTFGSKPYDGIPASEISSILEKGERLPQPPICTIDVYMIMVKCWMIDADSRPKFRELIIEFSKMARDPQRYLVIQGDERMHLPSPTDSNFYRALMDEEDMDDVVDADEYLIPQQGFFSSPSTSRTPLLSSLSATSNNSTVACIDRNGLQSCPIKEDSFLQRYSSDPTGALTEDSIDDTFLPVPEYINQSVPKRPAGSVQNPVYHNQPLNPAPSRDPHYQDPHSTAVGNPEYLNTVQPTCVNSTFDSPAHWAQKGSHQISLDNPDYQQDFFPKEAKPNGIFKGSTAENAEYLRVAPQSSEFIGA
Epidermal growth factor receptor (Homo sapiens, UniProt P00533, L858R/T790M), sequence (P00533 25-1210 T790M/L858R limits assumed): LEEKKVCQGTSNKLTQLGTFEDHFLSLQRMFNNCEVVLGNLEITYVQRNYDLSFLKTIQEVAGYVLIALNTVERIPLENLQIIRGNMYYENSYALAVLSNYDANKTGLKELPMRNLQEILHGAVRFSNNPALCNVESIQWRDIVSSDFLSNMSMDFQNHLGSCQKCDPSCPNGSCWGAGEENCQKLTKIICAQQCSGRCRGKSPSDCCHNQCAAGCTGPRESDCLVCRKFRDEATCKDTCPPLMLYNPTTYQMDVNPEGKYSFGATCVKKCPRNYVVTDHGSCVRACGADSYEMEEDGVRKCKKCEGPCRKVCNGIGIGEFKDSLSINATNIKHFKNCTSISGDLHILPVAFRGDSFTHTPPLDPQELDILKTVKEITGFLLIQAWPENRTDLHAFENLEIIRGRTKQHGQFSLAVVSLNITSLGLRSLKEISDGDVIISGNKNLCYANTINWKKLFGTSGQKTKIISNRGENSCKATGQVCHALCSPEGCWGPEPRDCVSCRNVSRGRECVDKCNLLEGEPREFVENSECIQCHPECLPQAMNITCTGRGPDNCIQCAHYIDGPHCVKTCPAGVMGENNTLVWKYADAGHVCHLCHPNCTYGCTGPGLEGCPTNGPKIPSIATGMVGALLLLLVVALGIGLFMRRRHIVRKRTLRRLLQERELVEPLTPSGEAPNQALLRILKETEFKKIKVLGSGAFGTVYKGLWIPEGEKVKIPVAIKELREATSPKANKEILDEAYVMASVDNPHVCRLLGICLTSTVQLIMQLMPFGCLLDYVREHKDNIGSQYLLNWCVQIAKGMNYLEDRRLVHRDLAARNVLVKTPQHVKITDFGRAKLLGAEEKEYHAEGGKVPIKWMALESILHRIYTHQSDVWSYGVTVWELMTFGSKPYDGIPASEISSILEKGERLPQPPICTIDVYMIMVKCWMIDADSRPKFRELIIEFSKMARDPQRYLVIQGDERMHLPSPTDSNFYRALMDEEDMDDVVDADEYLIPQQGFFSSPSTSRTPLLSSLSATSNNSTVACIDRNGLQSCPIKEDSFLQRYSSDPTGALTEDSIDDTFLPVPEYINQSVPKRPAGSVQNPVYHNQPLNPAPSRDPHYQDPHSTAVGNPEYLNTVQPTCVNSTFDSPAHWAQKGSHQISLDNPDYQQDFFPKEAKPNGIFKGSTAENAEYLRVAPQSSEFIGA

As for `C=CC(=O)Nc1cc(Nc2nccc(-c3csc4ccccc34)n2)c(OC)cc1N(C)CCN(C)C`, the IC50 in test [1] is 0.26 nM; in test [2], 4.11 nM; with NCI-H1975 it was 2 nM; with PC-9 it was 4 nM; in the test on NCI-H292 it was 4400 nM.
